Measurements: patent US8952024B2, “Herbicidal pyrimidone derivatives” (E I du Pont de Nemours and Company, priority 2009, dated 2015)

Assays:
Assay type in all cases: in vivo
[1] = tested on: large crabgrass (Digitaria sanguinalis); experiment: Test A pre-/postemergence plant response
Outline: (§1)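 Visually rated 0–100 injury (100 = complete control) versus untreated plants, ~10 days in greenhouse. Application pre- (soil spray, loam/sand) and postemergence (2–10 cm, 1–2 leaf stage), same timepoint.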

[2] = tested on: velvetleaf (Abutilon theophrasti); experiment: Test A pre-/postemergence plant response
Outline: as §1

[3] = tested on: barnyardgrass (Echinochloa crus-galli); experiment: Test A pre-/postemergence plant response
Outline: as §1

[4] = tested on: giant foxtail (Setaria faberii); experiment: Test A pre-/postemergence plant response
Outline: as §1

[5] = tested on: pigweed (Amaranthus retroflexus); experiment: Test A pre-/postemergence plant response
Outline: as §1

[6] = tested on: corn (Zea mays); experiment: Test A pre-/postemergence plant response
Outline: as §1

[7] = tested on: morningglory (Ipomoea spp.); experiment: Test A pre-/postemergence plant response
Outline: as §1

[8] = tested on: wheat (Triticum aestivum); experiment: Test A pre-/postemergence plant response
Outline: as §1

[9] = tested on: morningglory (Ipomoea coccinea); experiment: Test B pre-/postemergence plant response; settings: for Plant response rating, Morningglory: Postemergence; for Morningglory plant response rating (0 to 100 scale): 62 g ai/ha, postemergence, 0 is no effect, 100 is complete control
Outline: (§2)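 Test compounds, formulated in a non-phytotoxic solvent mixture with surfactant, are applied to the soil surface (loam and sand blend) right after seeding, or sprayed over plants at the 1- to 4-leaf stage grown in peat moss/vermiculite medium. After 13 to 15 days under glasshouse conditions, each species is scored visually from 0 (no effect) to 100 (complete control) against controls.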

[10] = tested on: cocklebur (Xanthium strumarium); experiment: Test B pre-/postemergence plant response; settings: for Plant response rating, Cocklebur: Postemergence; for Cocklebur plant response rating (0 to 100 scale): 62 g ai/ha, postemergence, 0 is no effect, 100 is complete control
Outline: as §2

[11] = tested on: soybean (Glycine max); experiment: Test B pre-/postemergence plant response; settings: for Plant response rating, Soybean: Postemergence; for Soybean plant response rating (0 to 100 scale): 62 g ai/ha, postemergence, 0 is no effect, 100 is complete control
Outline: as §2

[12] = tested on: wheat (Triticum aestivum); experiment: Test B pre-/postemergence plant response; settings: for Plant response rating, Wheat: Postemergence; for Wheat plant response rating (0 to 100 scale): 62 g ai/ha, postemergence, 0 is no effect, 100 is complete control
Outline: as §2

[13] = Postemergence, 125 g ai/ha, 0 to 100 scale where 0 is no effect and 100 is complete control
[14] = Postemergence, 500 g ai/ha, 0 to 100 scale, 0 = no effect, 100 = complete control, approx. ten days
[15] = Preemergence, 125 g ai/ha, 0 to 100 scale, 0 = no effect, 100 = complete control
[16] = Preemergence, 500 g ai/ha, visual injury, 0 to 100 scale (0 no effect, 100 complete control), approx. ten days
[17] = 31 g ai/ha, 0 to 100 scale (0 no effect, 100 complete control)
[18] = 125 g ai/ha, scale 0 to 100 (0 no effect, 100 complete control)
[19] = 250 g ai/ha, scale 0 to 100 (0 no effect, 100 complete control)
[20] = 250 g ai/ha, scale 0 to 100 (0 no effect, 100 complete control), 13 to 15 days

CCn1c(-c2cc(F)cc(F)c2)ncc(C(=O)C2=C(O)CCCC2=O)c1=O [Compound 122]
Plant response rating, Crabgrass, Large [1, 13]: 70
Plant response rating, Crabgrass, Large [1, 14]: 90
Plant response rating, Crabgrass, Large [1, 15]: 90
Plant response rating, Crabgrass, Large [1, 16]: 100
Plant response rating, Velvetleaf [2, 13]: 100
Plant response rating, Velvetleaf [2, 14]: 100
Plant response rating, Velvetleaf [2, 15]: 100
Plant response rating, Velvetleaf [2, 16]: 100
Plant response rating, Barnyardgrass [3, 13]: 60
Plant response rating, Barnyardgrass [3, 14]: 80
Plant response rating, Barnyardgrass [3, 15]: 30
Plant response rating, Barnyardgrass [3, 16]: 100
Plant response rating, Foxtail, Giant [4, 13]: 70
Plant response rating, Foxtail, Giant [4, 14]: 80
Plant response rating, Foxtail, Giant [4, 15]: 30
Plant response rating, Foxtail, Giant [4, 16]: 100
Plant response rating, Pigweed [5, 13]: 100
Plant response rating, Pigweed [5, 14]: 100
Plant response rating, Pigweed [5, 15]: 100
Plant response rating, Pigweed [5, 16]: 100
Plant response rating, Corn [6, 13]: 0
Plant response rating, Corn [6, 14]: 30
Plant response rating, Corn [6, 15]: 0
Plant response rating, Corn [6, 16]: 0
Plant response rating, Morningglory [7, 13]: 90
Plant response rating, Morningglory [7, 14]: 100
Plant response rating, Morningglory [7, 15]: 40
Plant response rating, Morningglory [7, 16]: 80
Plant response rating, Wheat [8, 13]: 0
Plant response rating, Wheat [8, 14]: 50
Plant response rating, Wheat [8, 15]: 0
Plant response rating, Wheat [8, 16]: 40
Plant response rating, Morningglory ([9]; 16 g ai/ha, 0 to 100 scale): 55
Morningglory plant response rating (0 to 100 scale) ([9]; 13 to 15 days): 75
Plant response rating, Morningglory [9, 17]: 60
Plant response rating, Morningglory [9, 18]: 85
Plant response rating, Cocklebur ([10]; 16 g ai/ha, 0 to 100 scale): 0
Cocklebur plant response rating (0 to 100 scale) ([10]; 13 to 15 days): 45
Plant response rating, Cocklebur [10, 17]: 20
Plant response rating, Cocklebur [10, 18]: 85
Plant response rating, Soybean ([11]; 16 g ai/ha, 0 to 100 scale): 20
Soybean plant response rating (0 to 100 scale) ([11]; 13 to 15 days): 75
Plant response rating, Soybean [11, 17]: 45
Plant response rating, Soybean [11, 18]: 80
Plant response rating, Wheat ([12]; 16 g ai/ha, 0 to 100 scale): 5
Wheat plant response rating (0 to 100 scale) ([12]; 13 to 15 days): 30
Plant response rating, Wheat [12, 17]: 15
Plant response rating, Wheat [12, 18]: 50

COCCCn1c(-c2cccc(F)c2)ncc(C(=O)C2=C(O)CCCC2=O)c1=O [Compound 126]
Plant response rating, Crabgrass, Large [1, 13]: 90
Plant response rating, Crabgrass, Large [1, 14]: 90
Plant response rating, Crabgrass, Large [1, 15]: 90
Plant response rating, Crabgrass, Large [1, 16]: 100
Plant response rating, Velvetleaf [2, 13]: 100
Plant response rating, Velvetleaf [2, 14]: 100
Plant response rating, Velvetleaf [2, 15]: 80
Plant response rating, Velvetleaf [2, 16]: 100
Plant response rating, Barnyardgrass [3, 13]: 80
Plant response rating, Barnyardgrass [3, 14]: 90
Plant response rating, Barnyardgrass [3, 15]: 70
Plant response rating, Barnyardgrass [3, 16]: 100
Plant response rating, Foxtail, Giant [4, 13]: 70
Plant response rating, Foxtail, Giant [4, 14]: 80
Plant response rating, Foxtail, Giant [4, 15]: 60
Plant response rating, Foxtail, Giant [4, 16]: 90
Plant response rating, Pigweed [5, 13]: 90
Plant response rating, Pigweed [5, 14]: 100
Plant response rating, Pigweed [5, 15]: 100
Plant response rating, Pigweed [5, 16]: 100
Plant response rating, Corn [6, 13]: 10
Plant response rating, Corn [6, 14]: 60
Plant response rating, Corn [6, 15]: 0
Plant response rating, Corn [6, 16]: 20
Plant response rating, Morningglory [7, 13]: 100
Plant response rating, Morningglory [7, 14]: 100
Plant response rating, Morningglory [7, 15]: 70
Plant response rating, Morningglory [7, 16]: 90
Plant response rating, Wheat [8, 13]: 0
Plant response rating, Wheat [8, 14]: 20
Plant response rating, Wheat [8, 15]: 0
Plant response rating, Wheat [8, 16]: 20
Morningglory plant response rating (0 to 100 scale) ([9]; 13 to 15 days): 85
Plant response rating, Morningglory [9, 17]: 75
Plant response rating, Morningglory [9, 18]: 100
Plant response rating, Morningglory [9, 19]: 100
Cocklebur plant response rating (0 to 100 scale) ([10]; 13 to 15 days): 65
Plant response rating, Cocklebur [10, 17]: 15
Plant response rating, Cocklebur [10, 18]: 80
Plant response rating, Cocklebur [10, 19]: 98
Soybean plant response rating (0 to 100 scale) ([11]; 13 to 15 days): 75
Plant response rating, Soybean [11, 17]: 70
Plant response rating, Soybean [11, 18]: 85
Plant response rating, Soybean [11, 19]: 98
Wheat plant response rating (0 to 100 scale) ([12]; 13 to 15 days): 15
Plant response rating, Wheat [12, 17]: 5
Plant response rating, Wheat [12, 18]: 35

CCCn1c(-c2cccc(F)c2)ncc(C(=O)C2=C(O)CCCC2=O)c1=O [Compound 127]
Plant response rating, Crabgrass, Large [1, 13]: 80
Plant response rating, Crabgrass, Large [1, 14]: 90
Plant response rating, Crabgrass, Large [1, 15]: 90
Plant response rating, Crabgrass, Large [1, 16]: 100
Plant response rating, Velvetleaf [2, 13]: 100
Plant response rating, Velvetleaf [2, 14]: 100
Plant response rating, Velvetleaf [2, 15]: 70
Plant response rating, Velvetleaf [2, 16]: 100
Plant response rating, Barnyardgrass [3, 13]: 80
Plant response rating, Barnyardgrass [3, 14]: 90
Plant response rating, Barnyardgrass [3, 15]: 40
Plant response rating, Barnyardgrass [3, 16]: 100
Plant response rating, Foxtail, Giant [4, 13]: 70
Plant response rating, Foxtail, Giant [4, 14]: 80
Plant response rating, Foxtail, Giant [4, 15]: 50
Plant response rating, Foxtail, Giant [4, 16]: 90
Plant response rating, Pigweed [5, 13]: 90
Plant response rating, Pigweed [5, 14]: 100
Plant response rating, Pigweed [5, 15]: 100
Plant response rating, Pigweed [5, 16]: 100
Plant response rating, Corn [6, 13]: 20
Plant response rating, Corn [6, 14]: 20
Plant response rating, Corn [6, 15]: 0
Plant response rating, Corn [6, 16]: 0
Plant response rating, Morningglory [7, 13]: 90
Plant response rating, Morningglory [7, 14]: 100
Plant response rating, Morningglory [7, 15]: 10
Plant response rating, Morningglory [7, 16]: 80
Plant response rating, Wheat [8, 13]: 0
Plant response rating, Wheat [8, 14]: 0
Plant response rating, Wheat [8, 15]: 0
Plant response rating, Wheat [8, 16]: 0
Morningglory plant response rating (0 to 100 scale) ([9]; 13 to 15 days): 80
Plant response rating, Morningglory [9, 17]: 65
Plant response rating, Morningglory [9, 18]: 90
Plant response rating, Morningglory [9, 20]: 98
Cocklebur plant response rating (0 to 100 scale) ([10]; 13 to 15 days): 95
Plant response rating, Cocklebur [10, 17]: 75
Plant response rating, Cocklebur [10, 18]: 95
Plant response rating, Cocklebur [10, 20]: 100
Soybean plant response rating (0 to 100 scale) ([11]; 13 to 15 days): 98
Plant response rating, Soybean [11, 17]: 95
Plant response rating, Soybean [11, 18]: 98
Plant response rating, Soybean [11, 20]: 98
Wheat plant response rating (0 to 100 scale) ([12]; 13 to 15 days): 10
Plant response rating, Wheat [12, 17]: 5
Plant response rating, Wheat [12, 18]: 25
Plant response rating, Wheat [12, 20]: 40
